ChEMBL document CHEMBL1201862, “PubChem BioAssay data set” (2004)
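Interpolation was linear, between the two tested concentrations surrounding the appropriate level; five concentrations were tested over 48 hours in 96-well plates. GI50: concentration for 50% inhibition of growth.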 Active and inactive are the calls of the source. Cut-off read from the data, not from the text of the source: active = GI50 up to about 1.1 µM and inactive = higher.

Columns and labels:
Experiment in all cases: NCI-60 cell line screen, 48 h
PC-3 = tested on: PC-3
BT-549 = tested on: BT-549
K562 = tested on: K562
OVCAR-3 = tested on: OVCAR-3
SF-295 = tested on: SF-295
U-251 = tested on: U-251
HCC 2998 = tested on: HCC 2998
UO-31 = tested on: UO-31
UACC-62 = tested on: UACC-62
OVCAR-4 = tested on: OVCAR-4
Malme-3M = tested on: Malme-3M
SN12C = tested on: SN12C
RPMI-8226 = tested on: RPMI-8226
SK-MEL-28 = tested on: SK-MEL-28
SNB-19 = tested on: SNB-19
DU-145 = tested on: DU-145
LOX IMVI = tested on: LOX IMVI
RXF 393 = tested on: RXF 393
OVCAR-8 = tested on: OVCAR-8
IGROV-1 = tested on: IGROV-1

| SMILES | GI50 (PC-3) | GI50 (BT-549) | GI50 (K562) | GI50 (OVCAR-3) | GI50 (SF-295) | GI50 (U-251) | GI50 (HCC 2998) | GI50 (UO-31) | GI50 (UACC-62) | GI50 (OVCAR-4) | GI50 (Malme-3M) | GI50 (SN12C) | GI50 (RPMI-8226) | GI50 (SK-MEL-28) | GI50 (SNB-19) | GI50 (DU-145) | GI50 (LOX IMVI) | GI50 (RXF 393) | GI50 (OVCAR-8) | GI50 (IGROV-1) |
| --- | --- | --- | --- | --- | --- | --- | --- | --- | --- | --- | --- | --- | --- | --- | --- | --- | --- | --- | --- | --- |
| CCOc1ccc(N/C(=C(/C(Cl)=C(/Cl)Nc2ccccc2)[N+](=O)[O-])n2nnc3ccccc32)cc1 | 23.2 µM (inactive) | 13.3 µM (inactive) | 28.8 µM (inactive) | 24.1 µM (inactive) | 51.3 µM (inactive) | 18.2 µM (inactive) | 37.7 µM (inactive) | 17.1 µM (inactive) | 17.8 µM (inactive) | 42.5 µM (inactive) | 21.9 µM (inactive) | 20.8 µM (inactive) | 50.7 µM (inactive) | 22.8 µM (inactive) | 30.1 µM (inactive) | 45.9 µM (inactive) | – | – | – | – |
| C[C@]12CCC3c4ccc(O)cc4CC[C@H]3C1CC(=O)NC2=O (some centres not stated) | > 10 µM (inactive) | > 10 µM (inactive) | > 10 µM (inactive) | > 10 µM (inactive) | > 10 µM (inactive) | > 10 µM (inactive) | > 10 µM (inactive) | > 10 µM (inactive) | – | > 10 µM (inactive) | > 10 µM (inactive) | > 10 µM (inactive) | > 10 µM (inactive) | > 10 µM (inactive) | > 10 µM (inactive) | > 10 µM (inactive) | > 10 µM (inactive) | > 10 µM (inactive) | > 10 µM (inactive) | > 10 µM (inactive) |
| Cc1ccc(-c2cc(-c3ccc(Cl)cc3)nc(/N=C3\C(=O)N(CN4CCOCC4)c4ccccc43)n2)cc1 | 26.5 µM (inactive) | 27.5 µM (inactive) | 23.1 µM (inactive) | 33.9 µM (inactive) | 40.9 µM (inactive) | 23.7 µM (inactive) | 18.6 µM (inactive) | – | 20 µM (inactive) | 28.7 µM (inactive) | 22.9 µM (inactive) | 30.8 µM (inactive) | – | 49.1 µM (inactive) | 15.1 µM (inactive) | 33.2 µM (inactive) | 24.2 µM (inactive) | 16.4 µM (inactive) | 19.5 µM (inactive) | 15.2 µM (inactive) |
| CON(C)C(=O)C(Cc1ccccc1)NC(=O)OC(C)(C)C (configuration not stated) | > 100 µM (inactive) | > 100 µM (inactive) | > 100 µM (inactive) | > 100 µM (inactive) | > 100 µM (inactive) | > 100 µM (inactive) | > 100 µM (inactive) | > 100 µM (inactive) | > 100 µM (inactive) | – | > 100 µM (inactive) | > 100 µM (inactive) | > 100 µM (inactive) | > 100 µM (inactive) | > 100 µM (inactive) | > 100 µM (inactive) | – | > 100 µM (inactive) | > 100 µM (inactive) | > 100 µM (inactive) |
| O=[N+]([O-])c1ccc(N/N=C2/CC3=C2CCCCCCCCCC3)c([N+](=O)[O-])c1 | > 100 µM (inactive) | > 100 µM (inactive) | > 100 µM (inactive) | > 100 µM (inactive) | > 100 µM (inactive) | > 100 µM (inactive) | > 100 µM (inactive) | > 100 µM (inactive) | > 100 µM (inactive) | > 100 µM (inactive) | > 100 µM (inactive) | > 100 µM (inactive) | > 100 µM (inactive) | > 100 µM (inactive) | > 100 µM (inactive) | > 100 µM (inactive) | – | > 100 µM (inactive) | > 100 µM (inactive) | > 100 µM (inactive) |
| C#C[C@]1(O)CC[C@H]2[C@@H]3CCC4=C/C(=N/OCCN(C)C)CC[C@]4(C)[C@H]3CC[C@@]21C | 27.7 µM (inactive) | 65.9 µM (inactive) | 6.82 µM (inactive) | 22 µM (inactive) | 6.97 µM (inactive) | 33.6 µM (inactive) | 41 µM (inactive) | 62.5 µM (inactive) | 32.5 µM (inactive) | > 100 µM (inactive) | 22.1 µM (inactive) | 44.3 µM (inactive) | 28.4 µM (inactive) | 51.5 µM (inactive) | 27.9 µM (inactive) | 22.3 µM (inactive) | 37.8 µM (inactive) | – | 49.7 µM (inactive) | 50.7 µM (inactive) |
| Cc1ccc(C(=O)C2C=C(c3ccc(C)cc3)SC3C=CCC32)cc1 (configuration not stated) | 18.1 µM (inactive) | 18.3 µM (inactive) | 27.7 µM (inactive) | 17 µM (inactive) | 19.1 µM (inactive) | 17.9 µM (inactive) | – | 16.1 µM (inactive) | 17.9 µM (inactive) | 30.5 µM (inactive) | 16.3 µM (inactive) | 17.2 µM (inactive) | 16.3 µM (inactive) | 17.4 µM (inactive) | 30 µM (inactive) | 32.3 µM (inactive) | 18.4 µM (inactive) | 21 µM (inactive) | 17 µM (inactive) | 19.6 µM (inactive) |
| CCCCCCc1cc2cc(-c3csc(-c4ccc(OC)cc4)n3)c(=O)oc2cc1O | 18.9 µM (inactive) | 2.36 µM (inactive) | 19.3 µM (inactive) | – | 13.9 µM (inactive) | 5.24 µM (inactive) | 15.3 µM (inactive) | 6.7 µM (inactive) | 6.55 µM (inactive) | 2.48 µM (inactive) | – | 10.4 µM (inactive) | 33.8 µM (inactive) | 10.2 µM (inactive) | 9.95 µM (inactive) | 11.7 µM (inactive) | 12.6 µM (inactive) | 13.1 µM (inactive) | – | 5.45 µM (inactive) |
| NC(=O)NC(=O)C1CCCCC1C(=O)O (configuration not stated) | > 100 µM (inactive) | > 100 µM (inactive) | 5.11 µM (inactive) | > 100 µM (inactive) | > 100 µM (inactive) | > 100 µM (inactive) | – | > 100 µM (inactive) | > 100 µM (inactive) | > 100 µM (inactive) | > 100 µM (inactive) | > 100 µM (inactive) | > 100 µM (inactive) | > 100 µM (inactive) | > 100 µM (inactive) | > 100 µM (inactive) | > 100 µM (inactive) | > 100 µM (inactive) | > 100 µM (inactive) | > 100 µM (inactive) |
| CC(C)(CO)N1C(=O)c2ccccc2C1(O)c1ccc(Cl)cc1 (configuration not stated) | 44.3 µM (inactive) | > 100 µM (inactive) | > 100 µM (inactive) | 88.7 µM (inactive) | > 100 µM (inactive) | > 100 µM (inactive) | > 100 µM (inactive) | 63.2 µM (inactive) | > 100 µM (inactive) | 94 µM (inactive) | > 100 µM (inactive) | > 100 µM (inactive) | > 100 µM (inactive) | > 100 µM (inactive) | > 100 µM (inactive) | > 100 µM (inactive) | – | 39.9 µM (inactive) | > 100 µM (inactive) | > 100 µM (inactive) |
| CC(=O)C(C(C)=O)[C@H]1OC(C)(C)O[C@H]1[C@H]1COC(C)(C)O1 | 24.5 µM (inactive) | 28.4 µM (inactive) | 34.4 µM (inactive) | 28.6 µM (inactive) | 29.2 µM (inactive) | 24.9 µM (inactive) | 26.5 µM (inactive) | 49.8 µM (inactive) | 43.2 µM (inactive) | 40.6 µM (inactive) | > 100 µM (inactive) | 29.6 µM (inactive) | – | 97.3 µM (inactive) | 41.6 µM (inactive) | 42.1 µM (inactive) | 32.7 µM (inactive) | 36.2 µM (inactive) | 34.7 µM (inactive) | 53.5 µM (inactive) |
| C/C(=N\Nc1nc2ccccc2s1)c1cc2ccccc2cn1 | 5.42 µM (inactive) | 6.05 µM (inactive) | – | 1.65 µM (inactive) | 3.7 µM (inactive) | 4.68 µM (inactive) | 7.76 µM (inactive) | 1.48 µM (inactive) | 3.51 µM (inactive) | 1.75 µM (inactive) | 4.61 µM (inactive) | 4.29 µM (inactive) | 3.21 µM (inactive) | 6.3 µM (inactive) | 13.6 µM (inactive) | 3.85 µM (inactive) | 2.49 µM (inactive) | 3.61 µM (inactive) | 2.84 µM (inactive) | 1.61 µM (inactive) |
| C/C=C/C[C@@H](C)C(=O)C1C(=O)N[C@@H](C(C)C)C(=O)N(C)CC(=O)N(C)[C@@H](CC(C)C)C(=O)N[C@@H](C(C)C)C(=O)N(C)[C@@H](CC(C)C)C(=O)N[C@@H](C)C(=O)N[C@@H](C)C(=O)N(C)[C@@H](CC(C)C)C(=O)N(C)[C@@H](CC(C)C)C(=O)N(C)[C@@H](C(C)C)C(=O)N1C (some centres not stated) | 0.703 µM (active) | 4.98 µM (inactive) | 4.45 µM (inactive) | 4.09 µM (inactive) | 7.28 µM (inactive) | 5.94 µM (inactive) | 2.46 µM (inactive) | 3.78 µM (inactive) | 4.5 µM (inactive) | 2.74 µM (inactive) | – | 5.58 µM (inactive) | – | 6.37 µM (inactive) | 14 µM (inactive) | 4.06 µM (inactive) | 2.82 µM (inactive) | 3.03 µM (inactive) | 9.82 µM (inactive) | – |
| O=C(Nc1ccc(S(=O)(=O)Nc2ncccn2)cc1)c1c2ccccc2nc2ccccc12 | > 100 µM (inactive) | > 100 µM (inactive) | > 100 µM (inactive) | > 100 µM (inactive) | > 100 µM (inactive) | > 100 µM (inactive) | > 100 µM (inactive) | > 100 µM (inactive) | > 100 µM (inactive) | > 100 µM (inactive) | > 100 µM (inactive) | > 100 µM (inactive) | > 100 µM (inactive) | > 100 µM (inactive) | > 100 µM (inactive) | > 100 µM (inactive) | > 100 µM (inactive) | – | > 100 µM (inactive) | > 100 µM (inactive) |
